# US7494976B2, “Caveolin peptides and their use as therapeutics” (Yale University, priority 2000, dated 2009)
# Entries after “also recorded” stand apart in the source; their conditions may differ. Ends that are not written are not given here. Peptide text beside a SMILES is read from it.
# What was measured:
# [1] = tested on: isolated mouse aortas; experiment: Sodium nitroprusside induced (endothelium independent) relaxation of mouse aorta; details: AP 30 μM, twenty hours; SNP 10 μM
# [2] = tested on: isolated mouse aorta; experiment: Ach-induced relaxation of isolated mouse aortic rings (organ bath); details: AP alone 30 μM, twenty hours incubation
# Description: For isolated mouse aortic rings preparations, male C57 black mice (5-7 weeks of age) were anesthetized with methoxyflurane and sacrificed by exsanguination. The thoracic aorta was dissected and cut into cylindrical segments of three millimeters in length. Using a sterile 48-well tissue culture plate, each ring was incubated in a total volume of one ml with either peptides or vehicle (DMSO) diluted in DMEM supplemented with penicillin (100 units/ml), streptomycin (100 μg/ml) and L-glutamine (1 mM). The plate was incubated with 5% CO2. Following incubation with the peptides (one, six, twelve or twenty hours), rings were washed in oxygenated (95% O2-5% CO2) Krebs-Henseleit bicarbonate buffer solution (KHS) of the following composition (NaCl—118.3 mmol/L, KCl—4.7 mmol/L, CaCl2—2.5 mmol/L, MgSO4—1.2 mmol/L, KH2PO4—1.2 mmol/L, NaHCO3—25 mmol/L, glucose—5.6 mmol/L at 37° C. with ibuprofen (10 μM). The rings were suspended by two tungsten wires ([…] thickness) inserted into the lumen and mounted in a vessel myograph system (five ml chamber, Kent Scientific). The mouse aortas were submitted to a resting tension of 1.5 grams and isometric tension was recorded using a force transducer coupled to a MacLab data acquisition system. […] In some experiments concentration-response curves to the contractile effects of PE were monitored.
# [3] = tested on: mouse aorta; experiment: Uptake of biotinylated peptides into the vessel wall of mouse aorta; details: biotinylated peptides 100 μM, twenty hours, HRP staining
# Description: The uptake of AP-Cav into the vessel wall was examined next. A biotinylated version of AP-Cav and AP-Cav-X was synthesized. After twenty hours of incubation with the biotinylated peptides (100 μM) or vehicle, rings were placed in a dish and washed twice with PBS (twenty minutes each time) with light shaking, in order to eliminate the excess of biopeptide that could deposit over the tissue. Then the rings were embedded in OCT medium and cross sections ([…] thickness) were obtained for staining with an avidin-horseradish peroxidase complex and reactivity was detected with 3-amino-9-ethylcarbazole (AEC).
# [4] = tested on: prostacyclin production; experiment: Prostacyclin release from mouse aortic rings (6-keto-PGF1α by EIA); details: ibuprofen 10 μM
# Description: To further test the specificity of AP-Cav, Ach-induced prostacyclin production was measured. For measurement of prostacyclin release, after twenty hour incubation period, aortic segments (4-5 mm) were placed in sterile 48-well tissue culture plates with 300 μl of KHS at 37° C. for thirty minutes in an incubator. Then aliquots of […] were taken in order to measure the basal release of prostacyclin. Ach (1 μM) was added and the plate was kept in the incubator for an additional thirty minutes. Aliquots were then taken in order to measure the Ach-stimulated release of prostacyclin. This protocol was performed in absence or in presence of ibuprofen (10 μM). The aliquots were frozen and prostacyclin release was measured as the stable breakdown product, 6-keto-PGF1α, by EIA (Amersham).
# [5] = Systemic arterial blood pressure and heart rate in mice; format: in vivo, mouse
# [6] = conditions of the edema study, n=4 mice
molecule,measurement,setting,value
"AP: Antennapedia internalization sequence (RQIKIWFQNRRMKWKK), SEQ ID NO: 10, alone (Drosophila melanogaster; DOMAIN (1)..(16) Homeodomain, internalization sequence)",effect on vasorelaxant properties of sodium nitroprusside,[1],had no effect
same,effect on Ach-induced relaxation,[2],did not influence Ach-induced relaxation; also recorded: does not affect Ach induced relaxations
CC[C@H](C)[C@H](NC(=O)CNC(=O)[C@H](CC(=O)O)NC(=O)[C@H](CCCCN)NC(=O)[C@H](CCCCN)NC(=O)[C@H](Cc1c[nH]c2ccccc12)NC(=O)[C@H](CCCCN)NC(=O)[C@H](CCSC)NC(=O)[C@H](CCCNC(=N)N)NC(=O)[C@H](CCCNC(=N)N)NC(=O)[C@H](CC(N)=O)NC(=O)[C@H](CCC(N)=O)NC(=O)[C@H](Cc1ccccc1)NC(=O)[C@H](Cc1c[nH]c2ccccc12)NC(=O)[C@@H](NC(=O)[C@H](CCCCN)NC(=O)[C@@H](NC(=O)[C@H](CCC(N)=O)NC(=O)[C@H](CCCNC(=N)N)NC(=O)CCCCCNC(=O)CCCC[C@@H]1SC[C@@H]2NC(=O)N[C@@H]21)[C@@H](C)CC)[C@@H](C)CC)C(=O)N[C@@H](Cc1c[nH]c2ccccc12)C(=O)N[C@@H](CCCCN)C(=O)N[C@@H](C)C(=O)N[C@@H](CO)C(=O)N[C@@H](Cc1ccccc1)C(=O)N[C@H](C(=O)N[C@H](C(=O)N[C@@H](Cc1ccccc1)C(=O)N[C@H](C(=O)N[C@H](C(=O)N[C@H](C(=O)N[C@@H](CCCCN)C(=O)N[C@@H](Cc1ccc(O)cc1)C(=O)N[C@@H](Cc1c[nH]c2ccccc12)C(=O)N[C@@H](Cc1ccccc1)C(=O)N[C@@H](Cc1ccc(O)cc1)C(=O)N[C@@H](CCCNC(=N)N)C(=O)O)[C@@H](C)O)C(C)C)[C@@H](C)O)[C@@H](C)O)[C@@H](C)O [Biot-AP-Cav] (HELM PEPTIDE1{[O=C1N[C@H]2[C@H](CS[C@H]2CCCCC(=O)[*:2])N1].[O=C(CCCCCN[*:1])[*:2]].R.Q.I.K.I.W.F.Q.N.R.R.M.K.W.K.K.D.G.I.W.K.A.S.F.T.T.F.T.V.T.K.Y.W.F.Y.R}$$$$V2.0; N-terminus and C-terminus assumed),uptake into the vessel wall,[3],uptake of both AP-Cav and AP-Cav-X into the endothelium and adventitial lining of the vessel
CC[C@H](C)[C@H](NC(=O)CNC(=O)[C@H](Cc1c[nH]c2ccccc12)NC(=O)[C@H](CCCCN)NC(=O)[C@H](CCCCN)NC(=O)[C@H](Cc1c[nH]c2ccccc12)NC(=O)[C@H](CCCCN)NC(=O)[C@H](CCSC)NC(=O)[C@H](CCCNC(=N)N)NC(=O)[C@H](CCCNC(=N)N)NC(=O)[C@H](CC(N)=O)NC(=O)[C@H](CCC(N)=O)NC(=O)[C@H](Cc1ccccc1)NC(=O)[C@H](Cc1c[nH]c2ccccc12)NC(=O)[C@@H](NC(=O)[C@H](CCCCN)NC(=O)[C@@H](NC(=O)[C@H](CCC(N)=O)NC(=O)[C@H](CCCNC(=N)N)NC(=O)CCCCCNC(=O)CCCC[C@@H]1SC[C@@H]2NC(=O)N[C@@H]21)[C@@H](C)CC)[C@@H](C)CC)C(=O)N[C@@H](CC(=O)O)C(=O)N[C@@H](CCCCN)C(=O)N[C@@H](C)C(=O)N[C@@H](Cc1ccccc1)C(=O)N[C@@H](Cc1ccccc1)C(=O)N[C@H](C(=O)N[C@H](C(=O)N[C@@H](CO)C(=O)N[C@H](C(=O)N[C@H](C(=O)N[C@H](C(=O)N[C@@H](Cc1ccc(O)cc1)C(=O)N[C@@H](CCCCN)C(=O)N[C@@H](Cc1c[nH]c2ccccc12)C(=O)N[C@@H](Cc1ccccc1)C(=O)N[C@@H](CCCNC(=N)N)C(=O)N[C@@H](Cc1ccc(O)cc1)C(=O)O)[C@@H](C)O)C(C)C)[C@@H](C)O)[C@@H](C)O)[C@@H](C)O [Biot-AP-Cav-X] (HELM PEPTIDE1{[O=C1N[C@H]2[C@H](CS[C@H]2CCCCC(=O)[*:2])N1].[O=C(CCCCCN[*:1])[*:2]].R.Q.I.K.I.W.F.Q.N.R.R.M.K.W.K.K.W.G.I.D.K.A.F.F.T.T.S.T.V.T.Y.K.W.F.R.Y}$$$$V2.0; N-terminus and C-terminus assumed),uptake into the vessel wall,[3],uptake of both AP-Cav and AP-Cav-X into the endothelium and adventitial lining of the vessel
CC(C)Cc1ccc(C(C)C(=O)O)cc1 (centres unmarked) [ibuprofen],Ach-induced prostacyclin production (6-keto-PGF1α),[4],abolished
RQIKIWFQNRRMKWKKDGIWKASFTTFTVTKYWFYR [AP-Cav],heart rate,[5]; [6],320±29 beats per minute
same,systemic arterial blood pressure,[5]; [6],80±7 mm Hg
same,effect on blood pressure when delivered in vivo,[5]; preliminary evidence,do not increase blood pressure
